Experimental data from patent US7473688B2, “Indolobenzazepine HCV NS5B inhibitors” (Bristol-Myers Squibb Company, priority 2005, dated 2009).
pEC50, pIC50: −log10 of the molar value.

Tests used:
HCV replicon = HCV replicon FRET assay; format: cell-based; details: Hepatitis C virus, Table 1; FRET assay; read-out: EC50*
Text: FRET Assay Preparation. To perform the HCV FRET screening assay, 96-well cell culture plates were used. The FRET peptide (Anaspec, Inc.) (Taliani et al., Anal. Biochem. 1996, 240, 60-67) contains a fluorescence donor, EDANS, near one end of the peptide and an acceptor, DABCYL, near the other end. The fluorescence of the peptide is quenched by […] resonance energy transfer (RET) between the donor and the acceptor, but as the NS3 protease cleaves the peptide the products are released from RET quenching and the fluorescence of the donor becomes apparent. The assay reagent was made as follows: 5× cell Luciferase cell culture lysis reagent from Promega (#E153A) diluted to 1× with dH2O, NaCl added to 150 mM final, the FRET peptide diluted to 20 uM final from a 2 mM stock.
To prepare plates, HCV replicon cells, with or without a Renilla luciferase reporter gene, were trypsinized and placed into each well of a 96-well plate with titrated test compounds added in columns 3 through 12; columns 1 and 2 contained a control compound (HCV protease inhibitor), and the bottom row contained cells without compound. The plates were then placed in a CO2 incubator at 37° C.
Assays. Subsequent to addition of the test compounds described above (FRET Assay Preparation), at various times the plate was removed and Alamar blue solution (Trek Diagnostics, #00-100) was added per well as a measure of cellular toxicity. After reading in a Cytoflour 4000 instrument (PE Biosystems), plates were rinsed with PBS and then used for FRET assay by the addition of 30 ul of the FRET peptide assay reagent described above (FRET Assay Preparation) per well. The plate was then placed into the Cytoflour 4000 instrument which had been set to 340 excite/490 emission, automatic mode for 20 cycles and the plate read in a kinetic mode. Typically, the signal to noise using an endpoint analysis after the reads was at least three-fold. Alternatively, after Alamar blue reading, plates were rinsed with PBS, 50 ul of DMEM (high glucose) without phenol red was added and plates were then used for luciferase assay using the Promega Dual-Glo Luciferase Assay System.
Compound analysis was determined by quantification of the relative HCV replicon inhibition and the relative cytotoxicity values. To calculate cytoxicity values, the average Alamar Blue fluorescence signals from the control wells were set as 100% non-toxic. The individual signals in each of the compound test wells were then divided by the average control signal and multiplied by 100% to determine […]. To calculate the HCV replicon inhibition values, an average background value was obtained from the two wells containing the highest amount of HCV protease inhibitor at the end of the assay period. These numbers were similar to those obtained from naïve Huh-7 cells.
The background numbers were then subtracted from the average signal obtained from the control wells and this number was used as 100% activity. The individual signals in each of the compound test wells were then divided by the averaged control values after background subtraction and multiplied by 100% to determine percent activity. EC50 values for a protease inhibitor titration were calculated as the concentration which caused a 50% reduction in FRET or luciferase activity. The two numbers generated for the compound plate, percent cytoxicity and percent activity were used to determine compounds of interest for further analysis.

HCV NS5B = target: T1, HCV NS5B (Hepatitis C virus genotype 1b, UniProt Q9WMX2); assay: HCV NS5B RdRp enzyme assay (preincubation protocol); format: biochemical; details: Table 1, read-out: IC50*
T1 construct: The protein was expressed with an 18 amino acid C-terminal truncation to enhance the solubility; made in house; host or cells: E. coli BL21 (DE3), pET21a
Summary of the method: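 C-terminally truncated (Δ18) genotype 1b NS5B from E. coli, 14 nM, added to compound, then polyA template (0.2 nM), 3H-UTP (0.29 μM) and oligo-dT12 primer precaptured on streptavidin SPA beads. 4 h at 30 °C, pH 7.5, 2% DMSO; SPA readout; IC50 from seven concentrations by logistic fit.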

T1 sequence (Q9WMX2 2420-2992): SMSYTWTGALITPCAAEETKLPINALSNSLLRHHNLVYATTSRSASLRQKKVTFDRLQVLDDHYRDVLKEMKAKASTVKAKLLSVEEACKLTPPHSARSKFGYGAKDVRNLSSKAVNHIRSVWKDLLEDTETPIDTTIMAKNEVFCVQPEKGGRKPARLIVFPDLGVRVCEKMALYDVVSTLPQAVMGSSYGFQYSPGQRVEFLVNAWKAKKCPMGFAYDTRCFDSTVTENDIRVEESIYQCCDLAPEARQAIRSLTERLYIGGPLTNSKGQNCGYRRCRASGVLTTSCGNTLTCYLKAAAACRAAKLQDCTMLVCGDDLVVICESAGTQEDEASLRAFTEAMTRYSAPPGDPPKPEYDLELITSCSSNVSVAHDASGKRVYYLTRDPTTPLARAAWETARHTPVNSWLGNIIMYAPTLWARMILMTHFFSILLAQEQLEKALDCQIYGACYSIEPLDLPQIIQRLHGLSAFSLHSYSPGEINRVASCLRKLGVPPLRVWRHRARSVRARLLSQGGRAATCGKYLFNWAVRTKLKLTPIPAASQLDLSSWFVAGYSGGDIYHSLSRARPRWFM

Compound | pEC50 (HCV replicon) | pIC50 (HCV NS5B)
CN(C)S(=O)(=O)NC(=O)c1ccc2c(C3CCCCC3)c3n(c2c1)CC(C(=O)N1CCC(N2CCC(F)(F)CC2)CC1)=Cc1ccccc1-3 | 6.00 to 7.15 | 6.00 to 8.00
CN(C)S(=O)(=O)NC(=O)c1ccc2c(C3CCCCC3)c3n(c2c1)CC(C(=O)N1CCC(F)(F)CC1)=Cc1ccccc1-3 | 6.00 to 7.15 | 6.00 to 8.00
CN(C)S(=O)(=O)NC(=O)c1ccc2c(C3CCCCC3)c3n(c2c1)CC(C(=O)N1CCCC(F)(F)C1)=Cc1ccccc1-3 | 6.00 to 7.15 | 6.00 to 8.00
COc1ccc2c(c1)C=C(C(=O)N1CCC(N3CCOCC3)CC1)Cn1c-2c(C2CCCCC2)c2ccc(C(=O)NS(=O)(=O)N(C)C)cc21 | 6.00 to 7.15 | 6.00 to 8.00
CN(C)S(=O)(=O)NC(=O)c1ccc2c(C3CCCCC3)c3n(c2c1)CC(C(=O)N1CCC(N2CCOCC2)CC1)=Cc1ccc(Cl)cc1-3 | 5.00 to 6.00 | < 6.00
COC(=O)c1ccc2c(C3CCCCC3)c3n(c2c1)CC(NC(=O)N1CCC(N2CCOCC2)CC1)Cc1ccccc1-3 (stereo not shown) | < 6.92 | 6.00 to 8.00
O=C(O)c1ccc2c(C3CCCCC3)c3n(c2c1)CC(NC(=O)N1CCC(N2CCOCC2)CC1)Cc1ccccc1-3 (stereo not shown) | 6.00 to 7.15 | 6.00 to 8.00
COC(=O)c1ccc2c(C3CCCCC3)c3n(c2c1)CC(C(=O)N1CCCC(F)C1)=Cc1ccccc1-3 (stereo not shown) | < 6.43 | 6.00 to 8.00
COC(=O)c1ccc2c(C3CCCCC3)c3n(c2c1)CC(C(=O)N1CCC(N2CCCC(F)C2)CC1)=Cc1ccccc1-3 (stereo not shown) | < 6.43 | < 6.00
COC(=O)c1ccc2c(C3CCCCC3)c3n(c2c1)CC(C(=O)N1CCC(N2CCCC(F)(F)C2)CC1)=Cc1ccccc1-3 | < 6.43 | < 6.00
COC(=O)c1ccc2c(C3CCCCC3)c3n(c2c1)CC(C(=O)N1CC[C@H](F)C1)=Cc1ccccc1-3 | < 6.43 | < 6.00
COC(=O)c1ccc2c(C3CCCCC3)c3n(c2c1)CC(C(=O)N1CCC(N2CC[C@@H](F)C2)CC1)=Cc1ccccc1-3 | < 6.43 | < 6.00
COC(=O)c1ccc2c(C3CCCCC3)c3n(c2c1)CC(C(=O)N1CCC(N2CCC(F)CC2)CC1)=Cc1ccccc1-3 | < 6.43 | < 6.00
COC(=O)c1ccc2c(C3CCCCC3)c3n(c2c1)CC(C(=O)N1CCCC(=O)N1)=Cc1ccccc1-3 | 5.00 to 6.00 | < 6.00
COC(=O)c1ccc2c(C3CCCCC3)c3n(c2c1)CC(C(=O)N1CCCC(C(N)=O)C1)=Cc1ccccc1-3 (stereo not shown) | 5.00 to 6.00 | < 6.00
O=C(O)c1ccc2c(C3CCCCC3)c3n(c2c1)CC(C(=O)N1CCCC(F)C1)=Cc1ccccc1-3 (stereo not shown) | 5.00 to 6.00 | 6.00 to 8.00
O=C(O)c1ccc2c(C3CCCCC3)c3n(c2c1)CC(C(=O)N1CCC(N2CCCC(F)C2)CC1)=Cc1ccccc1-3 (stereo not shown) | 6.00 to 7.15 | 6.00 to 8.00
O=C(O)c1ccc2c(C3CCCCC3)c3n(c2c1)CC(C(=O)N1CCC(N2CCCC(F)(F)C2)CC1)=Cc1ccccc1-3 | 6.00 to 7.15 | 6.00 to 8.00
O=C(O)c1ccc2c(C3CCCCC3)c3n(c2c1)CC(C(=O)N1CC[C@@H](F)C1)=Cc1ccccc1-3 | 6.00 to 7.15 | 6.00 to 8.00
O=C(O)c1ccc2c(C3CCCCC3)c3n(c2c1)CC(C(=O)N1CC[C@H](F)C1)=Cc1ccccc1-3 | 6.00 to 7.15 | 6.00 to 8.00
O=C(O)c1ccc2c(C3CCCCC3)c3n(c2c1)CC(C(=O)N1CCC(N2CC[C@@H](F)C2)CC1)=Cc1ccccc1-3 | 6.00 to 7.15 | 6.00 to 8.00
O=C(O)c1ccc2c(C3CCCCC3)c3n(c2c1)CC(C(=O)N1CCC(N2CC[C@H](F)C2)CC1)=Cc1ccccc1-3 | 6.00 to 7.15 | 6.00 to 8.00
O=C(O)c1ccc2c(C3CCCCC3)c3n(c2c1)CC(C(=O)N1CCC(N2CCC(F)CC2)CC1)=Cc1ccccc1-3 | 6.00 to 7.15 | 6.00 to 8.00
